biological target: T1, human D2 receptor (short isoform) (Homo sapiens, UniProt P14416); assay: D2 receptor binding, displacement of 3H-spiperone (GH4C1 cells), for D2/D4 selectivity; settings: D4 selectivity, ratio D2/D4
T1 construct: membrane homogenate, 3H-spiperone displacement
Protocol: The potency of the test compound to reduce ^3 H-spiperone binding directly correlated to its binding affinity for the receptor.
GH4 C1 (rat pituitary) cells stably transfected with the human D2 receptor (short isoform) were grown in CO2 independent media in roller bottles (1500 cm^2) for 10 days. 100 μM ZnSO4 was added to the cells (the D2 promoter being zinc inducible). After 16 hours, fresh media was added to allow the cells to recover for 24 hours. The cells were harvested using versene and then centrifuged in a Sorval centrifuge for 10 minutes, at 5000 rpm (GS3 rotor). Pellets were quickly frozen in liquid nitrogen and stored at -80° C. until used in the binding assays. When used in the assay, cells were thawed on ice for 20 minutes. […] 10 mL of incubation buffer was added to the pellets which were then vortexed, resuspended and homogenized with a Kinematica CH-6010 Kriens-LU homogenizer for 15 seconds at setting 7. The receptor protein concentration was determined using the Pierce BCA assay.
Total Spiperone Binding Assay
The incubation was started by the addition of 500 μl (50 μg protein) membrane homogenate to a solution of 900 μl incubation buffer and 100 μl (0.25 nM final conc.) ^3 H-spiperone (90 Ci/mmol Amersham diluted in borosilicate glass vial) in 12×75 mm polypropylene tubes. The tubes were vortexed and incubated at room temperature for 90 minutes. The binding reaction was stopped by filtering using a Brandell Cell Harvester. The samples were filtered under vacuum over glass fibre filters (Whatman GF/B) presoaked for 2 hours in 0.3% polyethyleneimine (PEI) in 50 mM Tris buffer (pH7.4). The filters were then washed 3 times with 5 mL ice cold 50 mM Tris buffer (pH7.4). Individual filter disks were put in scintillation vials (Biovials, Bechman). Ready Protein Plus liquid scintillant (5 mL, Beckman) was added and the vials counted by liquid scintillation spectrophotometry (Beckman LSC 6500) after equilibrating for three hours at room temperature to determine total binding (BT).
Non-Specific Binding Assay for D2
This assay employed the same procedures as the non-specific binding assay for D4 with the exception that 2 μM (final conc.) of (-) sulpiride (Research Chemicals Inc.) was used in place of dopamine.
Displacement Binding Assay
The incubation was started by the addition to 12×75 mm polypropylene tubes 500 μl (50 μg protein) membrane homogenate to a solution of 400 μl incubation buffer, 100 μl (0.25 final conc.) ^3 H-spiperone (90Ci/mmol, Amersham, diluted in borosilicate glass vial to) and […] of test compound that was prepared from 1 mM stock dissolved in DMSO and stored at -20° C. in polypropylene cryogenic storage vials until dilution in incubation buffer in borosilicate glass vials. The tubes were vortexed and incubated at room temperature for 90 minutes at which time the binding reaction was stopped by filtering. The filters were washed and counted using the same procedure as in the total binding assay described above to give the displacement binding value (BD).
Specific binding in the absence of test compound (BO) was the difference of total binding (BT) minus non-specific binding (NSB) and similarly specific binding (in the presence of test compound) (B) was the difference of displacement binding (BD) minus non-specific binding (NSB). IC50 was determined from an inhibition response curve, logit-log plot of %B/BO vs concentration of test compound.
Ki was calculated by the Cheng and Prustoff transformation: […]
where [L] is the concentration of ^3 H-spiperone used in the assay and KD is the to dissociation constant of ^3 H-spiperone determined independently under the same binding conditions.

T1 sequence (P14416 with tags, fused parts or gaps DEL242-270): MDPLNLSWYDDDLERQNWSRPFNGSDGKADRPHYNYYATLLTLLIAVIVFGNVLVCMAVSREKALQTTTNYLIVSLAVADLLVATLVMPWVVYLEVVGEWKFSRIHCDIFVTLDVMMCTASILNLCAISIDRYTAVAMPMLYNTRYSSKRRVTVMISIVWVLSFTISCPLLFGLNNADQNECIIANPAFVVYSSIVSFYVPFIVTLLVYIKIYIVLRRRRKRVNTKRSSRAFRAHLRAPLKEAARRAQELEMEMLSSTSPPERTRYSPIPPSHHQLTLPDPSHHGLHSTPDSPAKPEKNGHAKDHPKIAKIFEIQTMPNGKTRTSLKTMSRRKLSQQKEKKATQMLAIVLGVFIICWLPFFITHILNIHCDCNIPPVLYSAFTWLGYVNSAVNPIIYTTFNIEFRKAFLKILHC

D2/D4	Compound
32.7	c1ccc2c(c1)N=C(N1CCN(Cc3ccc4c(c3)OCO4)CC1)c1ccccc1O2 [11-(4-piperonyl)-1-piperazinyl)-dibenz[b,f][1,4]oxazepine]
15.9	Clc1ccc2c(c1)C=C(N1CCN(Cc3ccc4c(c3)OCO4)CC1)c1ccccc1S2 [2-chloro-10-(4-piperonyl-1-piperazinyl)dibenzo[b,f]thiepine]
23.8	Clc1ccc2c(c1)N=C(N1CCN(Cc3ccc4c(c3)OCO4)CC1)c1ccccc1O2 [8-chloro-11-(4-piperonyl)-1-piperazinyl)dibenz[b,f][1,4]oxazepine]
24.9	Clc1ccc2c(c1)Nc1ccccc1N=C2N1CCN(Cc2ccc3c(c2)OCO3)CC1 [3-chloro-11-(4-piperonyl-1-piperazinyl)-5H-dibenzo[b,e][1,4]diazepine]

same assay, conditions: compared with clozapine

D4 selectivity	Compound
better D4 selectivity than clozapine	c1ccc2c(c1)N=C(N1CCN(Cc3ccc4c(c3)OCO4)CC1)c1ccccc1O2 [11-(4-piperonyl)-1-piperazinyl)-dibenz[b,f][1,4]oxazepine]
better D4 selectivity than clozapine	Clc1ccc2c(c1)C=C(N1CCN(Cc3ccc4c(c3)OCO4)CC1)c1ccccc1S2 [2-chloro-10-(4-piperonyl-1-piperazinyl)dibenzo[b,f]thiepine]
better D4 selectivity than clozapine	Clc1ccc2c(c1)N=C(N1CCN(Cc3ccc4c(c3)OCO4)CC1)c1ccccc1O2 [8-chloro-11-(4-piperonyl)-1-piperazinyl)dibenz[b,f][1,4]oxazepine]
better D4 selectivity than clozapine	Clc1ccc2c(c1)Nc1ccccc1N=C2N1CCN(Cc2ccc3c(c2)OCO3)CC1 [3-chloro-11-(4-piperonyl-1-piperazinyl)-5H-dibenzo[b,e][1,4]diazepine]

same assay, conditions: compared with corresponding 4-methyl piperazine compound

Compound	D4 selectivity
c1ccc2c(c1)N=C(N1CCN(Cc3ccc4c(c3)OCO4)CC1)c1ccccc1O2 [11-(4-piperonyl)-1-piperazinyl)-dibenz[b,f][1,4]oxazepine]	better D4selectivity than the corresponding 4-methyl piperazine compound
Clc1ccc2c(c1)N=C(N1CCN(Cc3ccc4c(c3)OCO4)CC1)c1ccccc1O2 [8-chloro-11-(4-piperonyl)-1-piperazinyl)dibenz[b,f][1,4]oxazepine]	better D4selectivity than the corresponding 4-methyl piperazine compound

— patent publication US5798350A, “Dopamine receptor ligands” (Allelix Biopharmaceuticals, Inc., priority 1996, dated 1998)
